Where a SMILES comes first, the peptide text is derived from it.
Legend:
[1] = Dynamic vapor sorption/desorption (DVS); assay type: physicochemical; conditions: for weight gain, adsorption: 5%-95% RH; for weight loss, desorption: 95%-5% RH
Procedure: Moisture sorption/desorption data were collected on a VTI SGA-100 Vapor Sorption Analyzer. Sorption and desorption data were collected over a range of 5% to 95% relative humidity (RH) at 10% RH intervals under a nitrogen purge. Samples were not dried prior to analysis. Equilibrium criteria used for analysis were less than 0.0100% weight change in 5 minutes, with a maximum equilibration time of 3 hours if the weight criterion was not met. Data were not corrected for the initial moisture content of the samples. Sodium chloride and polyvinypyrrolidine were used as calibration standards.

[2] = Approximate solubility, solvent addition method; assay type: physicochemical; conditions: ambient temperature
Procedure: A weighed sample of SEQ ID NO:1 (a polypeptide of amino acids F-L-P—S) was treated with aliquots of the test solvent at ambient temperature. Complete dissolution of the test material was determined by visual inspection. Solubility was estimated based on the total solvent used to provide complete dissolution. The actual solubility may be greater than the value calculated because of the use of solvent aliquots that were too large or due to a slow rate of dissolution. […] If complete dissolution was achieved as a result of only one aliquot addition, the solubility is expressed as “greater than”.

weight gain, adsorption [1]: 5%-95% RH; 25.0 w % (gain),
weight gain, adsorption ([1]; listed as SEQ ID NO:1): 25.0 w %
weight loss, desorption [1]: 95%-5% RH; 28.2 w % (loss)
weight loss, desorption ([1]; listed as SEQ ID NO:1): 28.2 w %
final weight loss after the desorption step ([1]; at ~5% RH, relative to original weight): 4.4%
initial weight loss ([1]; on equilibration at ~5% RH, as received material): 1.3%
weight gain on the sorption step ([1]; up to ~95% RH, relative to original weight): approximately 23.7%
solubility ([2]; 1-Butanol): ≥ 43 mg/mL
solubility ([2]; 2-Butanone): ≥ 20 mg/mL
solubility ([2]; 2-Propanol): ≥ 20 mg/mL
solubility ([2]; Acetone): ≥ 40 mg/mL
solubility ([2]; Acetonitrile (ACN)): ≥ 19 mg/mL
solubility ([2]; Chloroform): ≤ 1.9 mg/mL
solubility ([2]; Dichloromethane (DCM)): ≥ 20 mg/mL
solubility ([2]; Ethanol (EtOH)): ≥ 52 mg/mL
solubility ([2]; Ethyl acetate (EtOAc)): ≥ 20 mg/mL
solubility ([2]; Heptane): ≤ 2 mg/mL
solubility ([2]; Isopropyl ether): ≤ 2.7 mg/mL
solubility ([2]; Methanol (MeOH)): ≥ 50 mg/mL
solubility ([2]; Pentane): ≤ 2 mg/mL
solubility ([2]; Tetrahydrofuran (THF)): ≥ 44 mg/mL
solubility ([2]; Toluene): ≤ 3.6 mg/mL
solubility ([2]; Water, visual inspection): ≥ 60 mg/mL
Structure (SMILES): CC(C)CC(NC(=O)C(N)Cc1ccccc1)C(=O)N1CCCC1C(=O)NC(CO)C(=O)O (centres unmarked) [SEQ ID NO: 1] (H-FLPS-OH; configuration not given here)
